Measurements published in patent publication US20210115087A1, “CYCLIC PEPTIDE INHIBITORS OF HEDGEHOG PROTEINS” (University of Rochester, priority 2016, published 2021).
*1 amine or outer side, *2 acyl side, *3 side chain or, on linkers, in order; H or OH if unused. Where a SMILES comes first, the peptide text is derived from it. Bridges are numbered along the chain shown (N, C = ends). CH2CH2 = C(C[*:2])[*:1]

Assays:
[1] = system: GST-Shh, GST-Ihh, and GST-Dhh; test: Hedgehog analog selectivity: relative binding at fixed peptide concentration; design: species or system human; conditions: peptide at fixed concentration of 0.5-1 μM, normalized to highest response
Method: FIG. 14. Hh analog selectivity for linear HHIP L2-derived peptide (HL2-pep) and representative cyclic peptide inhibitors. The data relative to the peptides were derived from direct binding experiments with immobilized Hedgehog proteins (i.e., GST-Shh, GST-Ihh, and GST-Dhh), biotinylated peptides (i.e., Biot-HL2-pep, Biot-HL2-m1, Biot-HL2-m2, Biot-HL2-m3, Biot-HL2-m4, Biot-HL2-m4), and HRP-conjugated streptavidin. The data relative to robotnikinin were derived from competition experiments ([…]+400 nM HL2-m5). For each compound, the response values were normalized to the highest binding response measured across the three Hedgehog analogs.
Hedgehog analog selectivity. KD values for FLAG-HL2-m5 binding to Ihh and Dhh were determined using the colorimetric immunoassay described earlier but using GST-Ihh and GST-Dhh-coated plates, respectively. The peptide relative binding affinity for the three isoforms of Hedgehog was determined using the same assay and peptide solutions at a fixed concentration of 0.5-1 μM. In this case, binding responses were subtracted against the blank (no peptide sample) and normalized to the highest value measured across the three Hh isoforms. Mean values and standard deviations were calculated from experiments performed at least in triplicate.

[2] = system: Hedgehog pathway target genes Gli, Gi2 and Ptch1; test: Gene transcription analyses by real-time PCR in Shh-N-stimulated NIH-3T3 cells; type: cell-based, mouse; conditions: HL2-m5 at 10 μM
Method: The ability of the compounds to suppress a transcriptional response associated with activation of the Hedgehog pathway can be assessed by incubating a Hedgehog responsive mammalian cell with the Hedgehog ligand in the presence and in the absence of the cyclic peptide inhibitor. The messenger RNA (mRNA) is extracted and a DNA the mRNA (cDNA) is produced via reverse transcription. The transcriptional level of canonical Hedgehog target genes such as Gli1 and Ptch1 is then determined via real-time PCR and/or via PCR followed by DNA gel electrophoresis. From the resulting dose-response curves, the activity of the cyclic peptide toward suppressing Hedgehog induced transcriptional activity can be established and quantitatively measured by means of IC50 values.
To further validate HL2-m5 as a Hedgehog pathway antagonist, the effect of this compound on the transcriptional activity of two canonical target genes of the pathway, Gi and Ptch1 (FIG. 1) was examined via real-time PCR. […]
Gene transcription analyses. […] The relative amounts of Gi, Gi2, and Ptch1 mRNA transcripts were determined by real-time PCR (Bio-Rad CFX thermocycler) using the primers listed in Table S1 and SYBR green TAQ reagent (Bio-Rad) according to the manufacture's protocol. […] Mean values and standard deviations were calculated from measurements performed in quadruplicate.

[3] = system: Shh-mediated Hedgehog pathway signaling in NIH3T3 cells; test: Gli-reporter dual luciferase assay in Shh-N-stimulated NIH-3T3 cells; type: cell-based, mouse; conditions: 4 nM Shh-N, 24 hours; read-out: half-maximal inhibitory concentration (IC50), suppression of luminescence signal
Source text: The ability of the compounds provided herein to inhibit ligand-induced activation of the Hedgehog pathway in a cell can be assessed by means of a cell based assay. In an exemplary procedure, a suitable reporter plasmid is introduced in a Hedgehog responsive mammalian cell. Typically, the reporter plasmid contains a reporter gene encoding (e.g., a gene encoding for firefly luciferase) under a Gli-controlled promoter, thereby providing a reporter gene that is responsive to the activity of the Gli transcription factors. […] The reporter cells are incubated with the Hedgehog protein in the presence and in the absence of the cyclic peptide. The extent of Hedgehog pathway suppression can be determined based on relative activity of the luciferase reporter enzyme, which in turn can be determined by measuring the luminescence signal after addition of a luminogenic substrate of the luciferase enzyme.
To this end, we utilized a cell-based luciferase reporter assay, (Chen, Taipale et al. 2002) in which mouse embryo fibroblasts (NIH3T3) are transfected with vectors encoding for a Firefly luciferase (FF) gene under a Gli-controlled promoter and a Renilla luciferase (Ren) gene under a constitutive promoter. Hedgehog pathway suppression is measured based on the decrease in Firefly/Renilla luminescence ratio in the presence of the inhibitor. […] (Chen, Taipale et al. 2002)
Gli-reporter Assay. NIH-3T3 cells were passaged twice and then plated in 24-well culture dishes at 5×10^5 cells/well in DMEM containing 10% FBS and 1% penicillin/streptomycin. After 24 hours, the cells were transfected (TransIT-2020) with a mixture of a firefly luciferase reporter construct under the control of a Gli1 inducible promoter and a Renilla luciferase reporter construct under a constitutive promoter (40:1) (Cignal GLI Reporter Luciferase Kit, Qiagen). Cells were allowed to reach confluency, at which point the media was changed to Opti-MEM containing 1% FBS and added with 4 nM Shh-N(R&D Systems, Minneapolis, Minn.) in sterile PBS buffer. Synthetic HL2-lin and HL2-m5 were added at the same time at varying concentration (0.01-30 uM), and control cells were prepared by adding vehicle only (1% DMSO). Purmorphamine-treated cells were prepared by adding 5 μM purmorphamine to wells containing 10 μM HL2-m5. After growth for 24 hours at 37° C. in a humidified chamber, the cells were harvested and analyzed for Firefly and Renilla luciferase activity using a Tecan Spark-20 plate reader and a DLR kit (Promega) according to the manufacturer's instructions. Luminescence values were normalized to those of the Shh pathway activated control cells. Mean values and standard deviations were calculated from experiments performed at least in duplicate.

NIH-3T3 cells = test: Cell morphology, growth behavior and titer in the presence of the peptide; type: cell-based, mouse; conditions: highest concentration range applied
GST-Ihh = target: T1, GST-Ihh (Homo sapiens, UniProt Q14623); test: Competition assay: inhibition of FLAG-HL2-m5 binding to GST-Ihh; conditions: 10 μM robotnikinin and 400 nM FLAG-HL2-m5
T1 construct: poly-histidine (N); made in house; host or cells: E. coli BL21(DE3), vector pET42b
Method: (§1) The immunoassay described above can be adapted to serve as a competition assay. In this case, a fixed amount of the labeled peptide is incubated with the immobilized Hedgehog protein in the presence of a test compound (e.g., another cyclic peptide or a small-molecule compound). The test molecule competes with the cyclic peptide for binding to the immobilized Hedgehog protein. The amount of bound peptide is quantified using the colorimetric assay described above and the extent of inhibition in the presence of the test compound is compared to that in the absence of it. From the resulting dose-response curves, a IC50 value for the test compound can be obtained. Using this assay and the cyclic compounds provided herein, the Hedgehog inhibitory activity of a test molecule can be evaluated. […]
(§2) While Shh is the most abundant isoform among Hedgehog proteins, paracrine/autocrine Hedgehog signaling in normal and cancer cells is also mediated by the Indian (Ihh) and Desert (Dhh) isoforms. […] Since the Hh isoform selectivity of robotnikinin had not previously investigated, this property was examined by means of a competition assay, whereby inhibition of FLAG-HL2-m5 binding to plate-immobilized GST-Shh, GST-Ihh, or GST-Dhh is measured via the HRP-conjugated anti-FLAG antibody.
(§3) Competition assay. […] Mean values and standard deviations were calculated from experiments performed in triplicate.

[4] = system: Hedgehog pathway activation in cells; conditions: similar cell-based assay; read-out: IC50, blocking Hedgehog pathway activation in cells; cited from earlier work
GST-Shh = target: T2, GST-Shh (Homo sapiens, UniProt Q15465); test: Competition assay: inhibition of FLAG-HL2-m5 binding to GST-Shh; conditions: 10 μM robotnikinin and 400 nM FLAG-HL2-m5; read-out: % inhibition of FLAG-HL2-m5 binding in the presence of GST-Shh
T2 construct: poly-histidine (N); made in house; host or cells: E. coli BL21(DE3), vector pET42b
Method: as §1, §2, §3

GST-Dhh = target: T3, GST-Dhh (Homo sapiens, UniProt O43323); test: Competition assay: inhibition of FLAG-HL2-m5 binding to GST-Dhh; conditions: 10 μM robotnikinin and 400 nM FLAG-HL2-m5
T3 construct: poly-histidine (N); made in house; host or cells: E. coli BL21(DE3), vector pET42b
Method: as §1, §2, §3

T1 sequence (Q14623 28-411): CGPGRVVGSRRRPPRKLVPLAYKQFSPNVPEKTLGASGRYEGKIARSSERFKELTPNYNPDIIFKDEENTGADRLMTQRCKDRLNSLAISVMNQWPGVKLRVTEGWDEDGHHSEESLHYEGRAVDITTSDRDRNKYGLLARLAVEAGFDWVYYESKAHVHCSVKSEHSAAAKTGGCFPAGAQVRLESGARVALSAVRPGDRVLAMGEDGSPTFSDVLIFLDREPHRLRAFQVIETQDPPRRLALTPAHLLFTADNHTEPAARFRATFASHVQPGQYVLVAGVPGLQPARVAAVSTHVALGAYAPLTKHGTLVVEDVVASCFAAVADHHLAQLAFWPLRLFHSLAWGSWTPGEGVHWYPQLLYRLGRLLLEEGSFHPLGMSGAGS
T2 sequence (Q15465 24-462): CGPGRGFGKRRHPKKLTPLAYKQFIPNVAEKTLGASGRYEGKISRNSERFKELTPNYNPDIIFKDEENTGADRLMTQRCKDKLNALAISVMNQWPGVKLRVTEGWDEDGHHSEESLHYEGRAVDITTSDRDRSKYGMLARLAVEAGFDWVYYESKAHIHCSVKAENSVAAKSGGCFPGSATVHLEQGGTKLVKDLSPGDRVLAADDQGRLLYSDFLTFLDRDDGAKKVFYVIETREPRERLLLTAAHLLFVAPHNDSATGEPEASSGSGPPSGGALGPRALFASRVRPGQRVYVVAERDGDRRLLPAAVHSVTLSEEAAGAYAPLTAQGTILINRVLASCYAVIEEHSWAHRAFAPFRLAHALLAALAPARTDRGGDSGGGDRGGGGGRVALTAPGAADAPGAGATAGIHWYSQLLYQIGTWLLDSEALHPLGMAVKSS

| Compound | Hedgehog analog selectivity profile [1] | mRNA level for the transcription factor Gli2 ([2]; ShhN-stimulated cells) | reduction of the mRNA levels of Gi and Ptch1 ([2]; relative to compound-untreated ShhN-stimulated cells) | IC50 [3] [µM] | cytotoxicity (cell morphology, growth behavior and titer) (NIH-3T3 cells) | affinity toward Ihh relative to Shh (GST-Ihh) | IC50 [4] [µM] | inhibition at 10 µM (GST-Shh) [%] | affinity toward Dhh relative to Shh (GST-Dhh) |
| --- | --- | --- | --- | --- | --- | --- | --- | --- | --- |
| CSCC[C@@H]1NC(=O)[C@H](C)NC(=O)[C@H](CCC(=O)O)NC(=O)[C@@H](NC(=O)[C@H](Cc2c[nH]c3ccccc23)NC(=O)[C@H](CO)NC(=O)[C@H](CC(C)C)NC(=O)[C@@H](NC(C)=O)[C@@H](C)O)Cc2ccc(cc2)OCCSC[C@@H](C(=O)N[C@H](C(=O)N[C@@H](CC(=O)O)C(N)=O)[C@@H](C)O)NC(=O)[C@H](CCSC)NC(=O)[C@H](CC(=O)O)NC1=O [HL2-m5] (Ac-TLSWYEAMDMCTD-NH2; linker 5-11 via CH2CH2) | nearly identical activity toward Shh and Ihh | suppresses | 75-85% | 0.25 | lack of cytotoxicity |  |  |  |  |
| O=C(C[C@@H]1C/C=C/CCC(=O)O[C@H](c2ccccc2)CNC1=O)NCc1ccc(Cl)cc1 [robotnikinin] |  |  |  |  |  | significantly lower affinity | ~15 | 34 | significantly lower affinity |
